Data taken from patent US5290789A, “Penta and tetrasubstituted piperidines and compositions and method of treating psychosis” (Sterling Wintrop Inc., priority 1992, dated 1994).
Like-named read-outs stand apart in the source and are kept apart here.

How the values were obtained:
sigma receptors [1] = target: T1, sigma receptors (Cavia porcellus, UniProt Q60492); experiment: sigma receptor binding, [^3 H]-(+)-pentazocine, guinea pig brain membranes; settings: for inhibition at 10 µM: 2.5 h, inhibition of binding at 10 μM, [^3 H]-(+)-pentazocine approximately 0.5 nM, read-out: [^3 H] (+)-Pentazocine Percent Inhibition
T1 construct: Brain tissue was prepared from male Hartley guinea pigs; from tissue; host or cells: guinea pig brain membranes
T1 sequence (Q60492 whole entry): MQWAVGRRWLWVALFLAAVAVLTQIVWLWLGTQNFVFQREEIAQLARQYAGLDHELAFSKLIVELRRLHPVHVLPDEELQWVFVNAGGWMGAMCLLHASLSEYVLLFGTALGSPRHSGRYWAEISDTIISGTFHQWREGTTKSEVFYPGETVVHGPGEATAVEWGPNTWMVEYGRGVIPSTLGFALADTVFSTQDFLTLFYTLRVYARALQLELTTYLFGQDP
Experimental: (§1) Brain tissue was prepared from male Hartley guinea pigs (Hazelton Labs, Denver, Pa.) which were anesthetized with CO2 and sacrificed by decapitation. All animal care and use procedures were in accord with the "Guide for the Care and Use of Laboratory Animals" (NIH Publ. No. 86-23, 1985). Homogenization was performed in 10 volumes (wt/vol) of 0.32 M sucrose with a Brinkmann Polytron at setting 5, 30 sec. The homogenate was centrifuged at 900×g for 10 min at 4° C., and the supernatant was collected and centrifuged at 22,000×g for 20 min at 4° C. The pellet was resuspended in 10 volumes of Tris-HCl buffer (50 mm, pH 7.4), incubated at 37° C. for 30 min, and centrifuged at 22,000×g for 20 min at 4° C. Following this, the pellet was resuspended in Tris buffer and frozen in 5-10 mL aliquots corresponding to a tissue concentration of 100 mg/ml, at -70° C. Binding characteristics of the membranes were stable for at least one month when stored at -70° C.
On the day of the assay, membrane aliquots were thawed, resuspended in fresh Tris-HCl buffer and stored on ice until use. Each assay tube contained 100 μL of [^3 H]-(+)-pentazocine at a final concentration of approximately 0.5 nM or 100 μL of [^3 H)di(2-tolyl)guanidine (DTG) at a final concentration of approximately 4 nM, 100 μL of various concentrations of the compounds of interest, 500 μL of the tissue suspension and 300 μL of buffer to a final assay volume of 1 mL and a final tissue concentration of approximately 8 mg/tube, corresponding to approximately 0.15 mg protein/tube. Non-specific binding was defined by addition of a final concentration of 1 μM haloperidol to blank tubes for [^3 H](+)-pentazocine assay or by addition of a final concentration of 10 μM haloperidol to blank tubes for [^3 H]DTG assay. All tubes were incubated at 37° C. for 150 min in the [^3 H](+) -pentazocine assay or at 25° C. for 90 min in the [^3 H]DTG assay before termination of the reaction by rapid filtration over Whatman GF/B glass fiber filters that were presoaked in a solution of 0.5% polyethyleneimine for at least 1 hr prior to use. Filters were washed with three 4 ml volumes of cold Tris-HCl buffer.
Following addition of scintillation cocktail, samples were allowed to equilibrate for at least 4 hr. The amount of bound radioactivity was determined by liquid scintillation spectrometry using a Beckman LS 5000 TA liquid scintillation counter with an efficiency for tritium of approximately 60%. The results are reported as a percent (%) inhibition of binding at 10 μM.
(§2) Scatchard parameters and inhibition constants (Ki values) for the binding of test compounds were also calculated using the EBDA/LIGAND program (McPherson, J. Pharmacol. Meth. 1985, 14, 213-228), purchased from Elsevier/Biosoft, Inc. The Ki values are expressed as the mean or the mean ±SEM of at least two separate determinations performed in triplicate.

sigma receptors [2] = experiment: sigma receptor binding, [^3 H]di(2-tolyl)guanidine (DTG), guinea pig brain membranes; settings: inhibition of binding at 10 μM; [^3 H]DTG approximately 4 nM, 25° C., 90 min
Experimental: as §1
On the day of the assay, membrane aliquots were thawed, resuspended in fresh Tris-HCl buffer and stored on ice until use. […]
Following addition of scintillation cocktail, samples were allowed to equilibrate for at least 4 hr. The amount of bound radioactivity was determined by liquid scintillation spectrometry using a Beckman LS 5000 TA liquid scintillation counter with an efficiency for tritium of approximately 60%. […]
as §2

[3] = tested on: apomorphine-induced stereotypy; experiment: apomorphine-induced stereotypy assay; type: in vivo, mouse (male, Swiss-Webster); settings: test compound i.p., apomorphine 5.5 mg/kg s.c.; rated 20-30 minutes post drug treatment
Experimental: (§3) The compound of Example 4 was tested in vivo in the apomorphine-induced climbing assay and the apomorphine-induced stereotypy assay using the following procedures:
(§4) Male, Swiss-Webster mice (Taconic Farms, Germantown, N.Y.) weight 20-30 grams were grouped housed in colony facilities for a minimum of two days prior to testing. The colony facility was maintained on a 12 hour light/dark cycle (light: 0600-1800 hours) with water and Agway Prolab 100 rat chow available ad libitum. Each mouse was given an injection of test compound i.p. followed immediately by a s.c. injection of apomorphine 5.5 mg/kg or vehicle. All drugs were administered in a volume of 10 ml/kg body weight. The mice were then placed in individual cylindrical stainless steel climbing cages; 14.5 cm tall, 12 cm in diameter, with walls consisting of 1/16" O.D. bars spaced 0.8-1.0 cm apart, and were allowed to habituate to this environment for 20 minutes. […] Briefly, a (0) was scored for absence of any stereotypic behavior, infrequent stereotypic movements were scored as (1) , a (2) was scored for permanent sniffing and a score of (3) indicated intense and continuous stereotypic behavior. Treatment means for the 10 minute totals were calculated for climbing and stereotypy. […] A minimal effective dose (MED) for inhibition was determined for each parameter based on these analyses.

[4] = tested on: apomorphine-induced climbing; experiment: apomorphine-induced climbing assay; type: in vivo, mouse (male, Swiss-Webster); settings: Mus musculus, ip; test compound i.p., apomorphine 5.5 mg/kg s.c.; rated 20-30 minutes post drug treatment; Dunnett's Test P<0.05; read-out: minimal effective dose (MED) for inhibition of apomorphine-induced climbing
Experimental: as §3, §4

[5] = mean or mean ±SEM of at least two separate determinations performed in triplicate, 37° C., 150 min, read-out: [^3 H] (+)-Pentazocine Ki

| SMILES | inhibition at 10 µM (sigma receptors [1]; 37° C., 150 min) [%] | Ki (sigma receptors [1]; [5]) [nM] | also measured |
| --- | --- | --- | --- |
| C[C@@H]1CCN(C)[C@@H](C)[C@]1(C)CCCO (relative stereo) [Example 1b, 3-(1,2,3,4-tetramethyl-3-piperidine)propanol] | 42 |  | [3H]DTG Percent Inhibition (sigma receptors [2]): 39 percent (%) |
| C[C@@H]1CCN(Cc2ccccc2)[C@@H](C)[C@]1(C)CCCOCC1CC1 (relative stereo) [Example 4, 3-[3-(cycloprolmethoxy)propyl]-2,3,4-trimethyl-1-(phenylmethyl)piperidine] |  | 3.7 ± 0.4 | effect on stereotypic behavior [3]: did not affect stereotypic behavior; minimal effective dose [4]: 167 µmol/kg |
| C=CCOCC[C@]1(C)[C@H](C)CCN(Cc2ccccc2)[C@H]1C (relative stereo) [Example 9] | 99 | 300 ± 65 |  |
| C[C@@H]1CCN(C)[C@@H](C)[C@]1(C)CCCOCC1CC1 (relative stereo) [Example 1c, 3-[3-(cyclopropylmethoxy)propyl]1,2,3,4-tetramethylpiperidine] | 94 |  | Ki (sigma receptors [1]): 197 ± 32 nM |
| C=CCOCCC[C@]1(C)[C@H](C)CCN(C)[C@H]1C (relative stereo) [Example 6] | 89 | 559 ± 64 |  |
| COCCC[C@]1(C)[C@H](C)CCN(C)[C@H]1C (relative stereo) [Example 13, 3-(3-methoxypropyl)-1,2,3,4-tetramethylpiperidine] |  | 7670 |  |
| C#CCOCCC[C@]1(C)[C@H](C)CCN(C)[C@H]1C (relative stereo) [Example 7] | 76 |  |  |

Second part, led by results:

| inhibition at 10 µM (sigma receptors [1]; 37° C., 150 min) [%] | Ki (sigma receptors [1]; [5]) [nM] | SMILES | also measured |
| --- | --- | --- | --- |
| 99 | 45 ± 2 | CCCN1CC[C@@H](C)[C@@](C)(CCCOCC2CC2)[C@@H]1C (relative stereo) [Example 3f, 3-[3-(cyclopropylmethoxy)propyl]-2,3,4-trimethyl-1-propylpiperidine] |  |
| 85 |  | C[C@@H]1CCN(Cc2ccccc2)[C@@H](C)[C@]1(C)CCO (relative stereo) [Example 8b, 2,3,4-trimethyl-1-(phenylmethyl)-3-piperidineethanol] |  |
|  | 16700 | C[C@@H]1CCN[C@@H](C)[C@]1(C)CCCO (relative stereo) [Example 3c, 2.3.4-trimethyl-3-piperidinepropanol] | [3H]DTG Percent Inhibition (sigma receptors [2]): 23 percent (%) |
| 91 | 435 ± 17 | CC(C)N1CC[C@@H](C)[C@@](C)(CCCOCC2CC2)[C@@H]1C (relative stereo) [Example 5b, 3-[3-(cyclopropylmethoxy)propyl]-2,3,4-trimethyl-1-(1-methylethyl)piperidine] |  |
|  | 5 ± 0.2 | C[C@@H]1CCN(C)[C@@H](C)[C@@H]1CCCOCC1CC1 (relative stereo) [Example 2c, 3-[3-(cyclopropylmethoxy)propyl]1,2,4-trimethylpiperidine] |  |
| 17 |  | CC(C)N1CC[C@@H](C)[C@@](C)(CCCO)[C@@H]1C (relative stereo) [Example 5a, 2,3. 4-trimethyl-l-(1-methylethyl)-3-piperidinepropanol] | [3H]DTG Percent Inhibition (sigma receptors [2]): 30 percent (%) |
